Data on 13 compounds can be found in patent publication US20240415918A1, “Polypeptide and its use as a CCK receptor agonist/antagonist” (Centre for Regenerative Medicine & Health, Hong Kong …, priority 2021, published 2024).

SMILES strings stand for the structures. *1 amine or outer side, *2 acyl side, *3 side chain or, on linkers, in order; H or OH if unused. Where a SMILES comes first, the peptide text is derived from it. [ ]: non-standard residue; d: D form. The star is where a group is joined. sY = N[C@@H](Cc1ccc(OS(=O)(=O)O)cc1)C(=O)O; NMeW = CN[C@@H](Cc1c[nH]c2ccccc12)C(=O)O; Phe(3-Br) = N[C@@H](Cc1cccc(Br)c1)C(=O)O; Fmoc = O=C(OCC1c2ccccc2-c2ccccc21)*; Palmitoyl = CCCCCCCCCCCCCCCC(=O)*; NMeNle = CCCC[C@H](NC)C(=O)O; Suc = O=C(CCC(=O)[*:2])[*:1]; Nle = CCCC[C@H](N)C(=O)O A value given as a limit tells only on which side of the number the result lay.

The target of assay [1] is T1, CCK-B receptors (CHO-CCK) (Homo sapiens, UniProt P32239).
T1 construct: expressed in transfected cells; host or cells: CHO (CHO-CCK model cells)
T1 sequence (P32239 1-447): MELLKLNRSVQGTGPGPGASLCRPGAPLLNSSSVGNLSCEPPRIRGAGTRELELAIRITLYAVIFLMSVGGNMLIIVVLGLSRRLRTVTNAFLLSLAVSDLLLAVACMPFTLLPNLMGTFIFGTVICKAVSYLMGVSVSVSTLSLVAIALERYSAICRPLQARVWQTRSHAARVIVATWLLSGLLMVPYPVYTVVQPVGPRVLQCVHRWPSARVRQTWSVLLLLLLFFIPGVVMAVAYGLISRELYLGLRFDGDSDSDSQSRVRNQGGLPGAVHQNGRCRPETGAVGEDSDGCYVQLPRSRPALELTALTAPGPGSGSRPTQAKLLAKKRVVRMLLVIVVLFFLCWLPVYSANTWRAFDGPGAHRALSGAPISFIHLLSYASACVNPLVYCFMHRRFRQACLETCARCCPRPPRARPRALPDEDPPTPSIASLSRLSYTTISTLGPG
Kind of assay: Calcium flux (Fluo-8) agonist test on CHO-CCK model cells. The note with it: CHO-CCK cells. It counts as cell-based. In short, it runs like this: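 Agonist-mode Fluo-8 calcium flux read on CHO-CCK cells after dye loading 30 min at 37 °C plus 30 min at room temperature.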
A general note: Calcium assays in cells follow changes in intracellular calcium, usually with a dye or a luminescent sensor.

For assay [2], the target named is T1, CCK-B receptors (CHO-CCK). Nature of the assay: Calcium flux (Fluo-8) antagonist test on CHO-CCK model cells in presence of CCK8. The class given is cell-based.
Setting [3] is: Fluo-8 calcium flux, bound in μM.
[4] abbreviates: in presence of 10 nM CCK8, bound in μM.
[5] abbreviates: Fluo-8 calcium flux, 100% control = 20 nM CCK8.

Broadly, the EC50 is the concentration needed to bring the measured effect to its halfway point.

For `CSCC[C@H](NC(=O)[C@H](Cc1c[nH]c2ccccc12)NC(C)=O)C(=O)N[C@@H](CC(=O)O)C(=O)N[C@@H](CCCNC(=N)N)C(N)=O` [HT-195, Ac-Trp-Met-Asp-Arg-NH2] (Ac-WMDR-NH2), the EC50 in assay [1] (compound alone, bound in μM) is above 10 µM; in assay [2] (compound together with 10 nM CCK8) it was 2.2 µM.

As to `CSCC[C@H](NC(=O)[C@H](Cc1c[nH]c2ccccc12)NC(C)=O)C(=O)N[C@@H](CC(=O)O)C(=O)N[C@@H](CCC(=O)O)C(N)=O` [HT-196, Ac-Trp-Met-Asp-Glu-NH2], the EC50 in assay [1] (setting [3]) and in assay [2] (setting [4]) was above 10 µM in each case.

Turning to `CCCC[C@H](NC(=O)[C@H](Cc1c[nH]c2ccccc12)NC(=O)OCC1c2ccccc2-c2ccccc21)C(=O)N[C@@H](CC(=O)O)C(=O)N[C@@H](Cc1cccc(Br)c1)C(N)=O` [HT-198, Fmoc-Trp-Nle-Asp-Phe(3-Br)-NH2] (Fmoc-W[Nle]D[Phe(3-Br)]-NH2), the EC50 came out at 0.205 µM in assay [1] (setting [5]) and 0.908 µM in assay [2] (in presence of 10 nM CCK8).

On to `CCCC[C@@H](C(=O)N[C@@H](CC(=O)O)C(=O)N[C@@H](Cc1cccc(Br)c1)C(N)=O)N(C)C(=O)[C@H](Cc1c[nH]c2ccccc12)N(C)C(=O)OCC1c2ccccc2-c2ccccc21` [HT-200, Fmoc-(N-Me-Trp)-(N-Me-Nle)-Asp-Phe(3-Br)-NH2] (Fmoc-[NMeW][NMeNle]D[Phe(3-Br)]-NH2), for which the concentration for a half-maximal effect (EC50) was 0.616 µM in assay [1] (setting [5]) and 1.77 µM in assay [2] (in presence of 10 nM CCK8).

Consider `CSCC[C@H](NC(=O)[C@H](Cc1c[nH]c2ccccc12)NC(C)=O)C(=O)N[C@@H](CC(=O)O)C(=O)N[C@@H](Cc1cccc(Br)c1)C(=O)N[C@@H](C)C(N)=O` [HT-201, Ac-D-Trp-Met-Asp-Phe(3-Br)-Ala-NH2], for which the EC50 was 4.29 µM in assay [1] (setting [5]) and 3.6 µM in assay [2] (in presence of 10 nM CCK8).

Turning to `CCCC[C@H](NC(=O)[C@@H](Cc1c[nH]c2ccccc12)NC(=O)CNC(=O)CCC(=O)O)C(=O)N[C@@H](CC(=O)O)C(=O)N[C@@H](Cc1cccc(Br)c1)C(N)=O` [HT-202, (Suc)-Gly-D-Trp-Nle-Asp-Phe(3-Br)-NH2] (Suc-G[dW][Nle]D[Phe(3-Br)]-NH2), the half-maximal effective concentration (EC50) in assay [1] (setting [5]) amounted to 0.0051 µM; in assay [2] (in presence of 10 nM CCK8), 0.192 µM.

Take `CCCCCCCCCCCCCCCC(=O)NCC(=O)N[C@H](Cc1c[nH]c2ccccc12)C(=O)N[C@@H](CCCC)C(=O)N[C@@H](CC(=O)O)C(=O)N[C@@H](Cc1cccc(Br)c1)C(N)=O` [HT-203, (Pal)-Gly-D-Trp-Nle-Asp-Phe(3-Br)-NH2] (Palmitoyl-G[dW][Nle]D[Phe(3-Br)]-NH2): the concentration giving a half-maximal response (EC50) in assay [1] (setting [5]) was 0.036 µM; in assay [2] (in presence of 10 nM CCK8), 1.59 µM.

`CSCC[C@H](NC(=O)[C@H](Cc1ccc(O)cc1)NC(=O)[C@H](CC(=O)O)NC(C)=O)C(=O)NCC(N)=O` [HT-206, Ac-Asp-Tyr-Met-Gly-NH2] (Ac-DYMG-NH2): the EC50 in assay [1] (setting [3]) and in assay [2] (setting [4]) was above 10 µM throughout.

Turning to `CSCC[C@H](NC(=O)[C@H](Cc1ccc(O)cc1)NC(C)=O)C(=O)NCC(=O)N[C@@H](Cc1c[nH]c2ccccc12)C(N)=O` [HT-207, Ac-Tyr-Met-Gly-Trp-NH2] (Ac-YMGW-NH2), the concentration giving a half-maximal response (EC50) in assay [1] (setting [3]) and in assay [2] (setting [4]) was above 10 µM throughout.

As to `CSCC[C@H](NC(=O)[C@H](Cc1ccc(OS(=O)(=O)O)cc1)NC(=O)[C@H](CC(=O)O)NC(C)=O)C(=O)NCC(N)=O` [HT-208, Ac-Asp-Tyr(SO3H)-Met-Gly-NH2] (Ac-D[sY]MG-NH2), the concentration giving a half-maximal response (EC50) in assay [1] (setting [3]) and in assay [2] (setting [4]) was above 10 µM in each case.

Take `CSCC[C@H](NC(=O)[C@H](Cc1ccc(OS(=O)(=O)O)cc1)NC(C)=O)C(=O)NCC(=O)N[C@@H](Cc1c[nH]c2ccccc12)C(N)=O` [HT-209, Ac-Tyr(SO3H)-Met-Gly-Trp-NH2] (Ac-[sY]MGW-NH2): the EC50 is above 10 µM in assay [1] (setting [3]) and 2.15 µM in assay [2] (in presence of 10 nM CCK8).

As to `CSCC[C@H](NC(=O)[C@H](Cc1c[nH]c2ccccc12)NC(=O)CNC(=O)[C@H](CCSC)NC(C)=O)C(N)=O` [HT-210, Ac-Met-Gly-Trp-Met-NH2] (Ac-MGWM-NH2), the EC50 worked out at 0.398 µM in assay [1] (setting [5]) and 6.45 µM in assay [2] (in presence of 10 nM CCK8).

Regarding `CSCC[C@H](NC(=O)[C@H](Cc1c[nH]c2ccccc12)NC(=O)CNC(C)=O)C(=O)N[C@@H](CC(=O)O)C(N)=O` [HT-211, Ac-Gly-Trp-Met-Asp-NH2] (Ac-GWMD-NH2), the EC50 in assay [1] (setting [3]) and in assay [2] (setting [4]) was above 10 µM each time.
